Source: paper PMC6657668, “Porcine Beta-Defensin 2 Provides Protection Against Bacterial Infection by a Direct Bactericidal Activity and Alleviates Inflammation via Interference With the TLR4/NF-κB Pathway” (Frontiers in Immunology, 2019)
Where a SMILES comes first, the peptide text is derived from it.

What was measured:
[1] = tested on: S. Typhimurium; assay: Bactericidal activity assay (colony counting); conditions: 5000 CFU, 1 h, 37°C, n = 6
Procedure: S. Typhimurium cells were cultured to mid-log phase (OD600nm = 0.7) in TSB. The cultures were centrifuged for 10 min at 1,000 × g, and the cell pellets were diluted in assay medium (10 mM phosphate, pH 7.0, with 1/100 TSB). The antimicrobial activities of PBD-2, TG serum and tissue homogenates were determined by colony counting assay. The mice serum, caecum, colon, or duodenum homogenates were heat inactivated at 56°C for 20 min to exclude the possible effect of complement in tissues. As a control, PBD-2 solution in PBS (50 μg/ml) was also heat-treated at 56°C for 20 min. Afterwards, 5000 CFUs of S. Typhimurium were mixed with 100 μl of each sample in a centrifuge tube at 37°C for 1 h. After incubation, 10 serial dilutions from 10 to 1,000-fold in TSB were conducted, and the diluted bacterial cultures were transferred onto TSA plates and incubated at 37°C for 24 h. The numbers of bacterial CFUs were recorded.

[2] = tested on: S. Typhimurium; assay: Histopathology of caecum of mice infected with S. Typhimurium; conditions: PBD-2 expressed in TG mice; oral 2.5 × 10^8 CFU; 24 h post-infection; H&E; vs WT
Procedure: (§2) Four infection experiments were conducted to determine the resistance to S. Typhimurium of the TG mice. For body weight measurements, 7 WT and 7 TG mice were orally administered with 2.5 × 10^8 CFU of S. Typhimurium, and the body weight of each mouse was measured on days 1, 2, 3, 4, and 5 after infection. For the detection of the tissue weight ratios, bacterial loads in tissues and tissue lesions after S. Typhimurium infection, 9 WT and 8 TG mice were orally administered with 2.5 × 10^8 CFU of S. Typhimurium. The spleen, caecum and body weights of the mice were weighed at 24 h post-infection. The bacterial loads in the tissues were also measured ([26]). The spleen and caecum were weighed and homogenized in cold PBS at a ratio of 4 ml per gram of tissue and coated plates. The bacterial numbers in the homogenates were counted by serially diluting the homogenates and spreading on plates. Caeca were harvested for histopathological analysis by using the methods described above. The intestinal damage, including epithelial damage, submucosal oedema, and neutrophil aggregation, was observed.

[3] = tested on: NF-κB p65; assay: Western blot of p65 and p-p65 in RAW 264.7 cells; format: cell-based, mouse
Procedure: RAW 264.7 cells were treated with LPS (1 μg/ml) alone or together with PBD-2 (10 μg/mL). After 6 h, the cells were lysed, and inflammatory proteins were detected through Western blot. Proteins were firstly analyzed with SDS-PAGE and then electro-transferred onto a PVDF (#ISEQ00010, Biosharp®, Beijing, China) membrane. The PVDF membrane was blocked with 1/100 bovine serum albumin (BSA, #V900933-100G, VETEC, Sigma-Aldrich®, St. Louis, MO, USA) at 10 μg/ml at 37°C for 2 h, washed with PBST five times, incubated with the antisera against p-p65 (# 3033), p65 (# 4764), p-ERK (# 4370), ERK (# 4695), p-p38 (# 4511), p38 (# 8690), p-JNK (# 4668), JNK (# 9258) (Cell Signaling Technology®, Danvers, MA, USA), and β-actin (# AA128, Beyotime®, Shanghai, China) at 2 μg/ml at 37°C for 2 h and washed five times again. The PVDF membrane was subsequently incubated with 1 μg/ml secondary antibody, namely, goat anti-rabbit IgG (# 7074S, Cell Signaling Technology®, Danvers, MA, USA), at 37°C for 2 h and washed five times. Lastly, immune-reactive bands were detected using an ECF Western blot system (Tanon 5200 Multi, Shanghai, China) and quantified using AlphaImager 2200 analysis software.

[4] = tested on: RAW 264.7 cells; assay: Cytokine levels of RAW 264.7 cells after treatment with LPS (ELISA), with or without pathway inhibitor; format: cell-based, mouse; conditions: for IL-1β level / IL-6 level / TNF-α level: LPS 1 μg/ml
Procedure: (§1) RAW 264.7 cells and RAW 264.7 cells stably expressing PBD-2 were pre-treated with S. Typhimurium at MOI = 10:1 for 1 h or with LPS (1 μg/ml) for 16 h, washed with PBS twice and incubated with RPMI 1640 that contained PBS or PBD-2 (10 μg/mL) for 16 h. RAW 264.7 cells stably expressing PBD-2 were maintained in RPMI 1640 that contained PBS for 16 h (n = 6 for each group). The expression levels of proinflammatory cytokines in the cell culture supernatant were determined through ELISA in accordance with the manufacturer's instruction.
In the inhibition assay, RAW 264.7 cells were pre-treated with 4 μg/ml NF-κB inhibitor (Celastrol, # ant-cls, InvivoGen®, San Diego, CA, USA) or 1 μg/ml TLR4 inhibitor (CLI-095, # tlrl-cli95, InvivoGen®, San Diego, CA, USA) for 1 h. Subsequently, RAW 264.7 cells were treated with LPS (1 μg/ml) alone or together with PBD-2 (10 μg/mL) for 16 h (n = 6 each group). RAW 264.7 cells treated with PBS were used as control. The levels of the cytokines in the supernatant of the cells were detected through ELISA.

[5] = tested on: RAW 264.7 cells; assay: Cytokine levels of RAW 264.7 cells after treatment with S. Typhimurium (ELISA); format: cell-based, mouse; conditions: S. Typhimurium MOI = 10:1, 1 h, n = 6
Procedure: as §1

[6] = tested on: S. Typhimurium; assay: Spleen and caecum weight ratios of mice infected with S. Typhimurium; conditions: PBD-2 expressed in TG mice; oral 2.5 × 10^8 CFU; legend: 24 h post-infection; WT n = 9, TG n = 8
Procedure: as §2

[7] = tested on: S. Typhimurium; assay: Bacterial load in caecum of mice infected with S. Typhimurium; conditions: PBD-2 expressed in TG mice; oral 2.5 × 10^8 CFU; 24 h post-infection; n = 6; vs WT
Procedure: as §2

[8] = tested on: S. Typhimurium; design: species or system Salmonella Typhimurium 14028 (in mice); conditions: mouse, in vivo, po
[9] = tested on: bacteria; conditions: ref [11], cited from earlier work
From the text: Another fact is that some vi ...

[10] = PBD-2 expressed by RAW 264.7–PBD-2 cells, n = 6
[11] = synthetic PBD-2 10 μg/mL with LPS 1 μg/ml, 16 h, after CLI-095 1 μg/ml, n = 6
[12] = synthetic PBD-2 10 μg/mL with LPS 1 μg/ml, 16 h, after Celastrol 4 μg/ml, n = 6
[13] = synthetic PBD-2 10 μg/mL, 16 h, n = 6
[14] = PBD-2 expressed by RAW 264.7–PBD-2 cells

In the case of `CC[C@H](C)[C@H](NC(=O)[C@@H]1CSSC[C@@H]2NC(=O)[C@@H]3CCCN3C(=O)[C@H](CO)NC(=O)[C@H](Cc3ccccc3)NC(=O)[C@H](CC(N)=O)NC(=O)[C@@H]3CSSC[C@H](NC(=O)[C@H]([C@@H](C)O)NC(=O)CNC(=O)[C@H](CCC(=O)O)NC(=O)[C@H]([C@@H](C)CC)NC(=O)[C@H](CCCNC(=N)N)NC(=O)[C@H](CC(N)=O)NC(=O)[C@H](Cc4ccccc4)NC(=O)[C@H](CC(C)C)NC(=O)[C@@H]4CCCN4C2=O)C(=O)N[C@@H](Cc2ccc(O)cc2)C(=O)N[C@@H](CO)C(=O)NCC(=O)N[C@@H](CCCCN)C(=O)N[C@@H](C)C(=O)N[C@@H](CCCCN)C(=O)N[C@@H](CSSC[C@H](NC(=O)[C@@H](NC(=O)[C@H](Cc2ccc(O)cc2)NC(=O)[C@H](Cc2c[nH]cn2)NC(=O)[C@@H](N)CC(=O)O)[C@@H](C)CC)C(=O)N[C@@H](C)C(=O)N[C@@H](CCCCN)C(=O)N[C@@H](CCCCN)C(=O)NCC(=O)NCC(=O)N[C@@H]([C@@H](C)O)C(=O)N3)C(=O)N1)C(=O)N[C@@H](CCCNC(=N)N)C(=O)O` [PBD-2, Porcine beta-defensin 2] (HELM PEPTIDE1{D.H.Y.I.C.A.K.K.G.G.T.C.N.F.S.P.C.P.L.F.N.R.I.E.G.T.C.Y.S.G.K.A.K.C.C.I.R}$PEPTIDE1,PEPTIDE1,5:R3-34:R3|PEPTIDE1,PEPTIDE1,12:R3-27:R3|PEPTIDE1,PEPTIDE1,17:R3-35:R3$$$V2.0; N-terminus and C-terminus assumed), the “number of survived bacteria, caecum homogenate” value ([1]; heat-inactivated (56°C, 20 min) caecum homogenate of PBD-2 TG mice vs WT) was “the number of the survived bacteria in the serum and tissue homogenates of the WT mice was significantly higher than that in the serum and tissue homogenates of the TG mice (p < 0.05)”, the “number of survived bacteria, colon homogenate” value ([1]; heat-inactivated (56°C, 20 min) colon homogenate of PBD-2 TG mice vs WT) was “the number of the survived bacteria in the serum and tissue homogenates of the WT mice was significantly higher than that in the serum and tissue homogenates of the TG mice (p < 0.05)” and the “number of survived bacteria, serum” value ([1]; heat-inactivated (56°C, 20 min) serum of PBD-2 TG mice vs WT) was “the number of the survived bacteria in the serum and tissue homogenates of the WT mice was significantly higher than that in the serum and tissue homogenates of the TG mice (p < 0.05)”. The “intestinal damage of the caecum (epithelial damage and submucosal oedema)” value [2] was “significantly milder intestinal damage (epithelial damage and submucosal oedema)”, the “neutrophil aggregation in the caecum” value [2] was “less neutrophil aggregation compared with that of the WT mice” and the “LPS-induced NF-κB p65 phosphorylation” value ([3]; LPS 1 μg/ml, PBD-2 10 μg/mL (legend: various concentrations), 6 h) was “suppress the LPS-induced NF-κB p65 phosphorylation”. The “activation of NF-κB by PBD-2 itself” value ([3]; PBD-2 without LPS (Figure 5D)) was “did not activate NF-κB”, the IL-1β level [4, 10] was “significantly reduced in RAW 264.7 cells supplemented with PBD-2 or in the RAW 264.7–PBD-2 cells (p < 0.05)” and the IL-6 level [4, 10] was “significantly reduced in RAW 264.7 cells supplemented with PBD-2 or in the RAW 264.7–PBD-2 cells (p < 0.05)”. The TNF-α level [4, 10] was “significantly reduced in RAW 264.7 cells supplemented with PBD-2 or in the RAW 264.7–PBD-2 cells (p < 0.05)”, the “cytokine secretion, PBD-2 itself” value ([4]; PBD-2 without stimulus (Figures 5A–C)) was “did not affect cytokine secretion” and the “inflammatory responses of RAW 264.7 cells expressing PBD-2 versus supplemented with synthetic PBD-2” value ([4]; S. Typhimurium or LPS (Figures 5A–C)) was “lower than those of the cells supplemented with synthetic PBD-2”. The “secretion of IL-1β in the presence of TLR4 inhibitor” value [4, 11] was “did not affect the secretion of these cytokines in the presence of TLR4 inhibitor (NS, p > 0.05)”, the “secretion of IL-6 in the presence of TLR4 inhibitor” value [4, 11] was “did not affect the secretion of these cytokines in the presence of TLR4 inhibitor (NS, p > 0.05)” and the “secretion of TNF-α in the presence of TLR4 inhibitor” value [4, 11] was “did not affect the secretion of these cytokines in the presence of TLR4 inhibitor (NS, p > 0.05)”. The “secretion of IL-1β in the presence of NF-κB inhibitor” value [4, 12] was “did not affect the secretion of these cytokines in the presence of NF-κB inhibitor (NS, p > 0.05)”, the “secretion of IL-6 in the presence of NF-κB inhibitor” value [4, 12] was “did not affect the secretion of these cytokines in the presence of NF-κB inhibitor (NS, p > 0.05)” and the “secretion of TNF-α in the presence of NF-κB inhibitor” value [4, 12] was “did not affect the secretion of these cytokines in the presence of NF-κB inhibitor (NS, p > 0.05)”. The IL-1β level [4, 13] was “significantly reduced in RAW 264.7 cells supplemented with PBD-2 or in the RAW 264.7–PBD-2 cells (p < 0.05)”, the IL-6 level [4, 13] was “significantly reduced in RAW 264.7 cells supplemented with PBD-2 or in the RAW 264.7–PBD-2 cells (p < 0.05)” and the TNF-α level [4, 13] was “significantly reduced in RAW 264.7 cells supplemented with PBD-2 or in the RAW 264.7–PBD-2 cells (p < 0.05)”. For the same molecule, the “level of IL-1β” value [5, 14] was “significantly lower in the RAW 264.7–PBD-2 cells than in the RAW 264.7 cells after S. Typhimurium treatment (p < 0.01)”, the “level of IL-6” value [5, 14] was “significantly lower in the RAW 264.7–PBD-2 cells than in the RAW 264.7 cells after S. Typhimurium treatment (p < 0.01)” and the “level of TNF-α” value [5, 14] was “significantly lower in the RAW 264.7–PBD-2 cells than in the RAW 264.7 cells after S. Typhimurium treatment (p < 0.01)”. For the same molecule, the “secretion of IL-1β” value ([5]; synthetic PBD-2 10 μg/mL, 16 h) was “significantly inhibited the secretion of TNF-α, IL-6, and IL-1β after S. Typhimurium treatment (p < 0.05)”, the “secretion of IL-6” value ([5]; synthetic PBD-2 10 μg/mL, 16 h) was “significantly inhibited the secretion of TNF-α, IL-6, and IL-1β after S. Typhimurium treatment (p < 0.05)” and the “secretion of TNF-α” value ([5]; synthetic PBD-2 10 μg/mL, 16 h) was “significantly inhibited the secretion of TNF-α, IL-6, and IL-1β after S. Typhimurium treatment (p < 0.05)”. The “caecum weight ratio (organ weight/body weight), caecal enlargement” value [6] was “the WT mice exhibited more severe splenic atrophy and caecal enlargement compared with the TG mice on day 2 post-infection (p < 0.05)”, the “spleen weight ratio (organ weight/body weight), splenic atrophy” value [6] was “the WT mice exhibited more severe splenic atrophy and caecal enlargement compared with the TG mice on day 2 post-infection (p < 0.05)” and the “bacterial load in the caecum” value [7] was “smaller amount of bacterial load in the caecum compared with the WT mice (p < 0.05)”. For the same molecule, the “survival at lower bacterial dose” value [8] was “all the WT and TG mice survived until the end of the experiments”, the survival rate [8] was 70% and the “antibacterial activity, concentration dependence” value ([9]; in vitro) was “positively related to its concentration”. The “bactericidal activity in vitro” value [9] was “high and broad spectrum of bactericidal activity in vitro”.
